Reference: US20240189258A1, “CANCER CELL GROWTH INHIBITING COMPOSITION AND PROCESSED FOOD” (HAGIHARA FARM PRODUCTION INSTITUTE CO., LTD., priority 2021, published 2024)
pIC50: −log10 of the molar value.

Legend:
Jurkat cells = assay: Growth inhibiting activity for human leukemia T cell line Jurkat cells (Cell Count Reagent SF, cell viability); assay type: cell-based; conditions: 72 hours culture, cell viability by absorbance A450-A630
Description: <2. Evaluation of growth inhibiting activity of compounds for human leukemia T cell line Jurkat cells>
The cancer cell growth-inhibiting activity of each sample described above was examined using Jurkat cells, which are from a human leukemia T cell line.
In each well of a 96-well plate, 50 μL of a Jurkat cell suspension prepared at 1×10^5 cells/mL was seeded. A DMSO solution of the evaluation sample was diluted 500 times with the culture medium. Immediately after that, 50 μL of the diluted sample solution was added to the cells to start a cell treatment. After the samples were stirred for 30 seconds using a microplate reader, the cells were cultured in an incubator. After 72 hours, 10 μL of Cell Count Reagent SF was added to each well. After a color reaction was performed in the incubator for 2 to 3 hours, the absorbance at 450 nm and 630 nm was measured using a microplate reader. Cell viability was determined using the following formula (F1).
Cell viability (%)=[(As−Ab)/(Ac−Ab)]×100 (F1)
Note that As, Ab, and Ac are as follows. • As: absorbance of evaluation well • Ab: absorbance of negative control well • Ac: absorbance of control well
All the “absorbance” values in the above-described formula were calculated by subtracting the absorbance at 630 nm (referred to as A630) from the absorbance at 450 nm (referred to as A450) , that is, “A450-A630”. Further, IC50 was calculated by linear approximation on a logarithmic graph using two concentrations that most tightly enclose the 50% cell viability point.

SMILES	pIC50 (Jurkat cells; Homo sapiens)	melting point	pIC50 (Jurkat cells)
C/C(=C\CN(C)C)CCC[C@H](C)CCC[C@H](C)CCCC(C)C (racemic) [PT21, (7RS,11RS,E)-1-N,N-dimethylamino-3,7,11,15-tetramethyl-2-hexadecene]	5.55		
C/C(=C\CNC(C)C)CCC[C@H](C)CCC[C@H](C)CCCC(C)C (racemic) [PT22, (7RS,11RS,E)-1-isopropylamino-3,7,11,15-tetramethyl-2-hexadecene]	5.59		
C/C(=C\CNC(C)(C)C)CCC[C@H](C)CCC[C@H](C)CCCC(C)C (racemic) [PT23, (7RS,11RS,E)-1-t-butylamino-3,7,11,15-tetramethyl-2-hexadecene]	5.51		
C/C(=C\C[N+](C)(C)C)CCC[C@H](C)CCC[C@H](C)CCCC(C)C.[Br-] (racemic) [PT26, (7RS,11RS,E)-N,N,N-trimethyl-3,7,11,15-tetramethyl-2-hexadecenaminium bromide]	5.85	199 to 201 °C	
CC[N+](CC)(CC)C/C=C(\C)CCC[C@H](C)CCC[C@H](C)CCCC(C)C.[Br-] (racemic) [PT27, (7RS,11RS,E)-N,N,N-triethyl-3,7,11,15-tetramethyl-2-hexadecenaminium bromide]	6.32	132 to 135 °C	

Further lines, results first:

pIC50 (Jurkat cells; Homo sapiens)	melting point	pIC50 (Jurkat cells)	SMILES
5.49	101 to 102 °C		C/C(=C\Cn1c(N)ccnc1=O)CCC[C@H](C)CCC[C@H](C)CCCC(C)C (racemic) [PT28, 6-amino-1-((7R,11R,E)-3,7,11,15-tetramethyl-2-hexadecenyl)pyrimidin-2(1H)-one]
5.42			C/C(=C\CN)CCC[C@H](C)CCC[C@H](C)CCCC(C)C (racemic) [rac-PT10, (7R,11R,E)-1-amino-3,7,11,15-tetramethyl-2-hexadecene, reference compound]
		4.53	C/C(=C\CO)CCC[C@H](C)CCC[C@H](C)CCCC(C)C (racemic) [rac-PTO, phytol, reference compound]
